Test results taken from PMC10895676, “Antiviral Activity of Lipophilic Nucleoside Tetraphosphate Compounds” (Journal of Medicinal Chemistry, 2024).
Entries after “also recorded” stand apart in the source; their conditions may differ.

Tests used:
pig liver esterase (PLE) = test: Enzymatic hydrolysis with pig liver esterase (PLE); format: in vitro ADME; conditions: pig liver esterase in phosphate buffer, PLE in phosphate buffer pH 7.3, 37 °C, read-out: PLE t1/2 (converted)
Procedure: To confirm the enzymatic hydrolysis process, TetraPPPPro-nucleotides 4–9 bearing different kinds of lipophilic groups attached to the δ-phosph(on)ate group were incubated with PLE in phosphate buffer.
Then, 833 μL of 50 mM phosphate buffer (pH 7.3) and 125 μL of DMSO were added to the 6.0 mM hydrolysis solutions. The reaction was started by addition of 62.5 μL of PLE in phosphate buffer (100 units/mL), and the mixture was incubated at 800 rpm at 37 °C in a thermomixer. (1). At different times, aliquots (75 μL) were taken and stopped by the addition of […] of MeOH. The mixture was stored in liquid nitrogen. When testing, samples were warmed up to room temperature, and 60 μL of the liquid was directly injected into HPLC analysis. (2). 40 μL for each extraction was stored in liquid nitrogen. When testing, samples were warmed up to room temperature, and 30 μL of the liquid was taken and injected into the analytical RP-18-HPLC instrument. The calculation of t1/2 was performed analogously to that for the chemical hydrolysis studies.

human DNA polymerase β = target: T1, human DNA polymerase β (Homo sapiens, UniProt P06746); test: Primer extension assay using human DNA polymerase β; format: biochemical; conditions: 60 min, 2 U, 37 °C
T1 construct: purchased Chimerx
Source text: Encouraged by the previously obtained results that γ-phosphate-modified-d4TDPs 3, γ-monoalkylated d4TTP derivatives as well as d4TDP were accepted as substrates by HIV-RT,[49],[50],[55],[59]−[61] δ-dialkylated d4T tetraphosphate analogues 4,5, δ-monoalkylated d4T tetraphosphate analogues 20 and 24 and d4T4P were investigated in primer extension assays in the presence of HIV-RT or the three different human DNA polymerases α, β and γ. D4TTP (for the compounds 4–9) and the natural thymidine triphosphate (TTP) were used as reference compounds.
Figure 6 Primer extension assay using HIV-RT (A), human polymerases α (B), β (C), and γ (D). (Figure 6A). Primer extension assay using HIV-RT (30 min, 6U). Lane 1: (+) dATP, dCTP, dGTP, and TTP with HIV-RT. Lane 2: (−) dATP, dCTP, dGTP, and TTP without HIV-RT. Lane 3: TTP. […] Lane 5: δ-(C4; C18)-d4T4P 4d. […] Lane 7: δ-(C18)-d4T4P 20. Lane 8: δ-C-(C18)-d4T4P 24. Lane 9: d4T4P. Lane 10: d4TTP. Lane 11: d4TDP. HIV-RT assay reaction conditions: 50 mM Tris–HCl (pH 8.6), 10 mM MgCl2, 40 mM KCl, 250 μM dNTPs, HIV-RT (6 U), 0.20 μM DNA hybrid, primer-template-hybrid 0.32 mM in a reaction volume of 10 μL, incubated at 37 °C for 0.5 h, 80 °C for 7 min. Primer extension assays: 50 mA, 45 w for 4 h. (Figure 6B). For human DNA polymerase α assay (60 min, 2 U): Lane 1: (+) dATP, dCTP, dGTP, and TTP with human polymerase α. Lane 2: (−) dATP, dCTP, dGTP, and TTP without human polymerase α. Lane 3: TTP. […] Lane 5: δ-(C4; C18)-d4T4P 4d. […] Lane 7: δ-(C18)-d4T4P 20. Lane 8: δ-C-(C18)-d4T4P 24. Lane 9: d4T4P. Lane 10: d4TTP. Human DNA polymerase α assay conditions: 60 mM Tris–HCl (pH 8), 5 mM Mg(OAc)2, 100 mM KCl, 1.0 mM dithiothreitol, 0.1 mM spermine, 0.01% (w/v) bovine serum albumin, 250 μM dNTPs, 2 U human polymerase α, 0.20 μM DNA hybrid, and primer-template-hybrid 0.32 mM in a reaction volume of 10 μL, incubated at 37 °C for 1 h, 80 °C for 7 min. Primer extension assays: 50 mA, 45 w for 3 h. (Figure 6C). For human DNA polymerase β assay (60 min, 2 U): Lane 1: (+) dATP, dCTP, dGTP, and TTP with human polymerase β. Lane 2: (−) dATP, dCTP, dGTP, and TTP without human polymerase β. Lane 3: TTP. […] Lane 5: δ-(C4; C18)-d4T4P 4d. […] Lane 7: δ-(C18)-d4T4P 20. Lane 8: δ-C-(C18)-d4T4P 24. Lane 9: d4T4P. Lane 10: d4TTP. Human DNA polymerase β assay conditions: 50 mM Tris–HCl (pH 8.7), 10 mM Mg(OAc)2, 100 mM KCl, 1.0 mM dithiothreitol, 0.1 mM spermine, 0.01% (w/v) bovine serum albumin, 15% glycerol, 250 μM dNTPs, 2 U human DNA polymerase β, 0.20 μM DNA hybrid, and primer-template-hybrid 0.32 mM in a reaction volume of 10 μL, incubated at 37 °C for 1 h, 80 °C for 7 min. Primer extension assays: 50 mA, 45 w for 3 h. (Figure 6D), For the human DNA polymerase γ assay (120 min, 2 U): Lane 1: (+) dATP, dCTP, dGTP, and TTP with human polymerase γ. Lane 2: (−) dATP, dCTP, dGTP, and TTP without human polymerase γ. Lane 3: TTP. […] Lane 5: δ-(C4; C18)-d4T4P 4d. […] Lane 7: δ-(C18)-d4T4P 20. Lane 8: δ-C-(C18)-d4T4P 24. Lane 9: d4T4P. Lane 10: d4TTP. Human polymerase γ assay conditions: 60 mM Tris–HCl (pH 8), 5 mM Mg(OAc)2, 1.0 mM dithiothreitol, 0.1 mM spermine, 0.01% (w/v) bovine serum albumin, 250 μM dNTPs, 2 U human polymerase γ, 0.5 μM MnCl2, 0.20 μM DNA hybrid, primer-template-hybrid 0.32 mM in a reaction volume of 10 μL, incubated at 37 °C for 2 h, 80 °C for 7 min. Primer extension assays: 50 mA, 45 w for 3 h.
HIV-RT and human polymerases α, β, and γ were bought from Roboklon and Chimerx. The fluorescent-labeled primer and template were obtained from Metabion. […]

CCCCCCCCCCCCCCCCCCOP(=O)(OCCCC)OP(=O)(O)OP(=O)(O)OP(=O)(O)OC[C@@H]1C=C[C@H](n2cc(C)c(=O)[nH]c2=O)O1 (stereo partly shown) [4d, δ-(Alkyl-C4; alkyl-C18)-d4T4P]
half-life at 0.45 mM (pig liver esterase (PLE)): > 50 h
substrate for human DNA polymerase β (primer extension) (human DNA polymerase β): not accepted

CCCCCCCCCCCCCCCCCCP(=O)(OCCCC)OP(=O)(O)OP(=O)(O)OP(=O)(O)OC[C@@H]1C=C[C@H](n2cc(C)c(=O)[nH]c2=O)O1 (stereo partly shown) [5a, δ-(Alkyl-C4)-δ-C-(alkyl-C18)-d4T4P]
half-life at 0.45 mM (pig liver esterase (PLE)): > 50 h
substrate for human DNA polymerase β (primer extension) (human DNA polymerase β): No incorporation of d4TMP

CCCCCCCCCCCCCCCCCCOP(=O)(O)OP(=O)(O)OP(=O)(O)OP(=O)(O)OC[C@@H]1C=C[C@H](n2cc(C)c(=O)[nH]c2=O)O1 [compound 20, δ-(Alkyl-C18)-d4T4P]
half-life at 0.45 mM (pig liver esterase (PLE)): > 50 h

CCCCCCCCCCCCCCCCCCP(=O)(O)OP(=O)(O)OP(=O)(O)OP(=O)(O)OC[C@@H]1C=C[C@H](n2cc(C)c(=O)[nH]c2=O)O1 [compound 24, δ-C-(Alkyl-C18)-d4T4P]
half-life at 0.45 mM (pig liver esterase (PLE)): > 50 h

Cc1cn([C@H]2C=C[C@@H](COP(=O)(O)OP(=O)(O)OP(=O)(O)OP(=O)(O)O)O2)c(=O)[nH]c1=O [d4T4P, 2′,3′-didehydro-2′,3′-dideoxythymidine-5′-tetraphosphate]
substrate for human DNA polymerase β (primer extension) (human DNA polymerase β): efficiently incorporated; also recorded: substrate
